{"source": "patent US9193731B2", "about": "“Antimicrobial compounds and methods of making and using the same” (Melinta Therapeutics, Inc., priority 2009, dated 2015)", "note": "Where a name gives a salt, the structure may show the parent alone.", "data": [{"test_system": "Escherichia coli strain ATCC25922", "experiment": "standard microdilution assay to determine minimum inhibitory concentrations (MICs)", "format": "cell-based", "settings": "Escherichia coli, ATCC25922, Escherichia coli strain ATCC25922, microdilution; read-out: E. coli ATCC25922 MIC", "experimental": "(§1) Minimum inhibitory concentrations (MICs) are determined by the microdilution method, typically in a final volume of 100 microliters, according to protocols outlined by The Clinical and Laboratory Standards Institute [CLSI; formerly the National Committee for Clinical Laboratory Standards (NCCLS)]. See CLSI: Methods for dilution antimicrobial susceptibility tests for bacteria that grow aerobically; approved standard-fifth edition. Wayne, Pa.: NCCLS; 2000. The assays can be also be performed in microtiter trays according to conventional methodologies as published by the CLSI. See CLSI. Methods for Dilution Antimicrobial Susceptibility Tests for Bacteria That Grow Aerobically; Approved Standard—Seventh Edition. CLSI Document M7-A7 [ISBN 1-56238-587-9] CLSI, 940 West Valley Road, Suite 1400, Wayne Pa. 19087-1898 USA, 2006).\n(§2) The compounds of the present invention were tested for antimicrobial activity. The compounds were run against Escherichia coli strain ATCC25922 using a standard microdilution assay to determine minimum inhibitory concentrations (MICs). […] A “N/A” means that data is unavailable. It will be recognized by one skilled in the art that the compounds can be assessed against other bacterial organisms and that the presentation of data for activity against Escherichia coli is illustrative and in no way is intended to limit the scope of the present invention. The compounds of the present invention can be assayed against a range of other microorganisms depending upon the performance activity desired to be gathered. Furthermore, the “+”, “−”, and “N/A” representation and the selection of a cutoff value of 16 micrograms/ml is also illustrative and in no way is intended to limit the scope of the present invention.", "units": {"MIC": "mg/L"}, "values": [{"smiles": "NCc1ccc(-n2cc3cc(-c4ccc(S(=O)(=O)NC5CCNCC5)c(Cl)c4)[nH]c3nc2=O)cc1", "note": "[Compound 245]", "MIC": "> 16"}, {"smiles": "O=c1nc2[nH]c(-c3ccc(S(=O)(=O)NC4CCNCC4)cc3F)cc2cn1-c1ccc(CNCCCCl)cc1", "note": "[Compound 250]", "MIC": "> 16"}, {"smiles": "O=C(NC1CCNCC1)c1ccc(-c2cc3cn(-c4ccc(CNCCCCl)cc4)c(=O)nc3[nH]2)c(F)c1", "note": "[Compound 253]", "MIC": "> 16"}, {"smiles": "O=C(NC1CCNCC1)c1ccc(-c2cc3cn(-c4ccc(CNCCCCl)cc4)c(=O)nc3[nH]2)cc1F", "note": "[Compound 254]", "MIC": "> 16"}, {"smiles": "NCc1ccc(-n2cc3cc(-c4cc(F)c(C(=O)NC5CCNCC5)c(F)c4)[nH]c3nc2=O)cc1", "note": "[Compound 258]", "MIC": "< 16"}, {"smiles": "O=c1nc2[nH]c(-c3ccc(S(=O)(=O)NC4CCNCC4)c(Cl)c3)cc2cn1-c1ccc(CNCCCF)cc1", "note": "[Compound 261]", "MIC": "> 16"}, {"smiles": "O=C(NC1CCNCC1)c1c(F)cc(-c2cc3cn(-c4ccc(CNCCCF)cc4)c(=O)nc3[nH]2)cc1F", "note": "[Compound 262]", "MIC": "> 16"}, {"smiles": "NC1CCN(Cc2ccc(-n3cc4cc(-c5ccc(S(=O)(=O)NC6CCNCC6)cc5F)[nH]c4nc3=O)cc2)CC1", "note": "[Compound 263]", "MIC": "< 16"}, {"smiles": "NC1CCN(Cc2ccc(-n3cc4cc(-c5ccc(S(=O)(=O)N6CCN7CCC6CC7)c(F)c5)[nH]c4nc3=O)cc2)CC1", "note": "[Compound 264]", "MIC": "> 16"}, {"smiles": "NCc1ccc(-n2cc3cc(-c4ccc(S(=O)(=O)NC5CCNCC5)c(Cl)c4)[nH]c3nc2=O)cc1F", "note": "[Compound 272]", "MIC": "> 16"}, {"smiles": "O=c1nc2[nH]c(-c3ccc(S(=O)(=O)NC4CCNCC4)cc3F)cc2cn1-c1ccc(CNCCCF)c(F)c1", "note": "[Compound 279]", "MIC": "> 16"}, {"smiles": "O=C(NC1CCNCC1)c1ccc(-c2cc3cn(-c4ccc(CNCCCF)c(F)c4)c(=O)nc3[nH]2)c(F)c1", "note": "[Compound 280]", "MIC": "> 16"}, {"smiles": "NCCCNCc1ccc(-n2cc3cc(-c4ccccc4Cl)[nH]c3nc2=O)cc1", "note": "[Compound 288]", "MIC": "> 16"}, {"smiles": "NCCCNCc1ccc(-n2cc3cc(CN4CCOC4=O)[nH]c3nc2=O)cc1", "note": "[Compound 289]", "MIC": "> 16"}, {"smiles": "NCCCNCc1ccc(-n2cc3cc(-c4ccccc4C(F)(F)F)[nH]c3nc2=O)cc1", "note": "[Compound 292]", "MIC": "> 16"}, {"smiles": "CC(C)NC(=O)CCc1cc2cn(-c3ccc(CNCCCN)cc3)c(=O)nc2[nH]1", "note": "[Compound 293]", "MIC": "> 16"}, {"smiles": "NCCCNCc1ccc(-n2cc3cc(-c4ccc(OC(F)(F)F)cc4)[nH]c3nc2=O)cc1", "note": "[Compound 296]", "MIC": "> 16"}, {"smiles": "NCCCNCc1ccc(-n2cc3cc(CCC(=O)N4CC[C@H](F)C4)[nH]c3nc2=O)cc1", "note": "[Compound 298]", "MIC": "> 16"}, {"smiles": "NCCCNCc1ccc(-n2cc3cc(-c4cc(F)c(F)c(F)c4)[nH]c3nc2=O)cc1", "note": "[Compound 306]", "MIC": "> 16"}, {"smiles": "NCCCNCc1ccc(-n2cc3cc(-c4ccccc4OC(F)(F)F)[nH]c3nc2=O)cc1", "note": "[Compound 309]", "MIC": "> 16"}, {"smiles": "NCCCNCc1ccc(-n2cc3cc(-c4cc(F)c(F)cc4F)[nH]c3nc2=O)cc1", "note": "[Compound 310]", "MIC": "> 16"}, {"smiles": "NCCCN(CCCN)Cc1ccc(-n2cc3cc(-c4ccccc4C(F)(F)F)[nH]c3nc2=O)cc1F", "note": "[Compound 318]", "MIC": "> 16"}, {"smiles": "NCCCNCc1ccc(-n2cc3c(nc2=O)[nH]c2ccccc23)cc1", "note": "[Compound 335]", "MIC": "> 16"}, {"smiles": "NCCCNCc1ccc(-n2cc3cc[nH]c3nc2=O)cc1", "note": "[Compound 498]", "MIC": "> 16"}, {"smiles": "NCCCNCc1ccc(-c2cn3cc(-c4ccc(F)cc4)[nH]c3nc2=O)cc1", "note": "[Compound 506]", "MIC": "> 16"}, {"smiles": "NCCCCCN1CC=C(n2cc3cc(-c4ccc(C(=O)NC5CCNCC5)cc4)[nH]c3nc2=O)CC1", "note": "[Compound 507]", "MIC": "< 16"}, {"smiles": "NCCCCCN1CC=C(n2cc3cc(-c4ccc(F)cc4)[nH]c3nc2=O)CC1", "note": "[Compound 508]", "MIC": "> 16"}, {"smiles": "NCCCCN1CC=C(n2cc3cc(-c4ccc(F)cc4)[nH]c3nc2=O)CC1", "note": "[Compound 511]", "MIC": "> 16"}, {"smiles": "NCCCCN1CCC(n2cc3c(nc2=O)[nH]c2ccccc23)C1", "note": "(stereo not drawn) [Compound 542]", "MIC": "> 16"}, {"smiles": "NCCCCN1CCC(n2cc3cc(-c4ccc(F)cc4)[nH]c3nc2=O)C1", "note": "(stereo not drawn) [Compound 559]", "MIC": "> 16"}, {"smiles": "NCCCCCN1CCC(n2cc3cc(-c4ccc(F)cc4)[nH]c3nc2=O)C1", "note": "(stereo not drawn) [Compound 560]", "MIC": "> 16"}, {"smiles": "O=c1nc2[nH]c(-c3ccc(F)cc3)cc2cn1C1CCNC1", "note": "(stereo not drawn) [Compound 561]", "MIC": "> 16"}, {"smiles": "N=C(N)NCCCCN1CCC(n2cc3c(nc2=O)[nH]c2ccccc23)C1", "note": "(stereo not drawn) [Compound 562, N-{4-[3-(2-oxo-2,9-dihydro-1,3,9-triaza-fluoren-3-yl)-pyrrolidine-1-yl]-butyl}-guanidine]", "MIC": "> 16"}, {"smiles": "NCCCNCc1ccc(-c2cn3cc[nH]c3nc2=O)cc1", "note": "[Compound 563, 6-{4-[(3-Amino-propylamino)-methyl]-phenyl}-1H-imidazo[1,2-a]pyrimidin-7-one]", "MIC": "> 16"}, {"smiles": "N=C(N)NCCCNCc1ccc(-c2cn3cc[nH]c3nc2=O)cc1", "note": "[Compound 564, N-{3-[4-(7-Oxo-1,7-dihydro-imidazo[1,2-a]pyrimidin-6-yl)-benzylamino]-propyl}-guanidine]", "MIC": "< 16"}, {"smiles": "CCCCN1CC=C(c2cn3cc(-c4ccc(F)cc4)[nH]c3nc2=O)CC1", "note": "[Compound 565]", "MIC": "> 16"}, {"smiles": "N=C(N)NCCCN1CC=C(c2cn3cc(-c4ccc(F)cc4)[nH]c3nc2=O)CC1", "note": "[Compound 566]", "MIC": "> 16"}, {"smiles": "NCCCN1CCC(c2cn3cc(-c4ccc(F)cc4)[nH]c3nc2=O)CC1", "note": "[Compound 567]", "MIC": "> 16"}, {"smiles": "NCCCN1CC=C(c2cn3cc[nH]c3nc2=O)CC1", "note": "[Compound 571]", "MIC": "> 16"}, {"smiles": "N=C(N)NCCCN1CC=C(c2cn3cc[nH]c3nc2=O)CC1", "note": "[Compound 572]", "MIC": "> 16"}, {"smiles": "Cn1cc2cc(-c3ccc(F)cc3)[nH]c2nc1=O", "note": "[Compound 580]", "MIC": "> 16"}, {"smiles": "Cn1cc2cc(-c3ccc(C(=O)NC4CCNCC4)cc3)[nH]c2nc1=O", "note": "[Compound 581]", "MIC": "> 16"}, {"smiles": "NCCCN1CC=C(c2cn3c(nc2=O)[nH]c2ccccc23)CC1", "note": "[Compound 587]", "MIC": "> 16"}, {"smiles": "NCCCCN1CC(n2cc3c(nc2=O)[nH]c2ccccc23)C1", "note": "[Compound 590]", "MIC": "> 16"}, {"smiles": "O=c1nc2[nH]c3ccccc3c2cn1C1CNC1", "note": "[Compound 591]", "MIC": "> 16"}, {"smiles": "O=c1nc2[nH]c3ccccc3c2cn1C1CCNC1", "note": "(stereo not drawn) [Compound 597]", "MIC": "> 16"}, {"smiles": "NCCCCN1CCC(n2cc3c(nc2=O)[nH]c2ccccc23)CC1", "note": "[Compound 600]", "MIC": "> 16"}, {"smiles": "NCCCNCc1ccc(-n2cc3cc(CCC4CCCCC4)[nH]c3nc2=O)cc1", "note": "[Compound 609]", "MIC": "> 16"}, {"smiles": "COCc1cc2cn(-c3ccc(CNCCCN)cc3)c(=O)nc2[nH]1", "note": "[Compound 610]", "MIC": "> 16"}, {"smiles": "NCCCNCc1ccc(-n2cc3cc(-c4ccc(C(F)(F)F)cc4)[nH]c3nc2=O)cc1", "note": "[Compound 611]", "MIC": "> 16"}, {"smiles": "NCCCNCc1ccc(-n2cc3cc(-c4ccsc4)[nH]c3nc2=O)cc1", "note": "[Compound 612]", "MIC": "> 16"}, {"smiles": "NCCCNCc1ccc(-n2cc3cc(CN4CCS(=O)(=O)CC4)[nH]c3nc2=O)cc1", "note": "[Compound 613]", "MIC": "> 16"}]}, {"test_system": "Escherichia coli strain ATCC25922", "experiment": "standard microdilution assay to determine minimum inhibitory concentrations (MICs)", "format": "cell-based", "settings": "Escherichia coli, ATCC25922, read-out: E. coli ATCC25922 MIC", "experimental": "as §1, §2", "units": {"MIC": "mg/L"}, "values": [{"smiles": "NCCCNCc1ccc(-c2cn3c(nc2=O)[nH]c2ccccc23)cc1", "note": "[Compound 601, 3-{4-[(3-Amino-propylamino)-methyl]-phenyl}-10H-benzo[4,5]imidazo[1,2-a]pyrimidin-2-one hydrochloride salt]", "MIC": "> 16"}, {"smiles": "N=C(N)NCCCNCc1ccc(-c2cn3c(nc2=O)[nH]c2ccccc23)cc1", "note": "[Compound 602, N-{3-[4-(2-Oxo-2,10-dihydro-benzo[4,5]imidazo[1,2-a]pyrimidin-3-yl)-benzylamino]-propyl}-guanidine hydrochloride salt]", "MIC": "< 16"}]}]}
